# Test results from patent US8946301B2, “Targeting of T-lymphocytes to treat amyotrophic lateral sclerosis” (ALS Therapy Development Institute, priority 2011, dated 2015).
# Where two headings read alike, the source gives them in different places.
# How the values were obtained:
# [1] = Pharmacokinetic profile of fingolimod in plasma and spinal cord of SOD1 mice; type: in vivo; details: G93A-SOD1 transgenic, mouse, male SOD1 mice, single IP bolus 6.7 mg/kg
# Method: FIG. 1A is a chart showing the plasma pharmacokinetic profile for fingolimod in male SOD1 mice after a single IP bolus 6.7 mg/kg.
# FIG. 1B is a chart showing the spinal cord pharmacokinetic profile for fingolimod in male SOD1 mice after a single IP bolus 6.7 mg/kg.
# The pharmacokinetic study provided reagent distribution and elimination parameters in order to guide future in vivo studies. […] Because of the longer than usual half-life of fingolimod, the time points for PK harvest extended beyond the typical 9 point small molecule PK study executed at ALS Therapy Development Institute (ALSTDI, Cambridge, Mass.). Time points included 0, 0.083 hours, 0.25 hours, 0.5 hours, 0.75 hours, 1 hour, 2 hours, 4 hours, 6 hours, 8 hours, 12 hours, 24 hours, 48 hours, 72 hours, and 96 hours.
# G93A-SOD1 transgenic mice (shortened to “SOD1 mice”) are mutant for superoxide dismutase 1 (SOD1) and are used as a disease model because of the phenotypic and pathologic resemblance to sporadic and familial human ALS. The SOD1 mice overexpress the superoxide dismutase, CCS, to develop an accelerated disease course that is associated with enhanced mitochondrial pathology and increased mitochondrial localization of mutant SOD1. The results of the fingolimod concentration studies were consistent with published reports for fingolimod in other tissues and models. Tissues analyzed included plasma (FIG. 1A) and spinal cord (FIG. 1B). Fingolimod treated animals were then divided into two groups using two separate doping regimens: • Low Dose Fingolimod Group: IP Load 0.44 mg/kg, Maintenance 0.32 mg/kg every 7 days (q7d), and • High Dose Fingolimod Group: IP Load 2.5 mg/kg, Maintenance 1.8 mg/kg q7d.
# [2] = tested on: CD45R positive cells; assay: Circulating CD45R positive cells in whole blood of SOD1 mice; type: in vivo, mouse; details: SOD1 animals, high and low dose groups
# Method: The following dosage regimen was used to determine the dose dependent effects of fingolimod in SOD1 mice: • Cohorts: • 1) SOD1 Fingolimod Treated “High Dose” (Load 2.5 mg/kg, 1.8 mg/kg Oral q7d) • 4 hour post final dose harvest • 7 day post final dose harvest • 2) SOD1 Fingolimod Treated “Low Dose” (Load 0.44 mg/kg, 0.32 mg/kg Oral q7d) • 4 hour post final dose harvest • 7 day post final dose harvest • 3) SOD1 Vehicle Control • 4 hour post final dose harvest • 7 day post final dose harvest
# The predicted plasma fingolimod load for both the high dose and the low dose regimes were determined, see FIGS. 2A and 2B. Tissues were harvested 4 hours after the third fingolimod dose. This time point was selected to best characterize the behavior of lymphocytes in animals treated with fingolimod when circulating levels of the drug are near peak concentration.
# [3] = tested on: lymphocytes in peritoneal lavage fluid; assay: Lymphocyte cell counts in peritoneal lavage fluid by FACS; type: in vivo, mouse; details: vs untreated SOD1
# Method: FIG. 4 is a graph showing cell counts in peritoneal lavage fluid. SOD1 animals received a loading dose of 2.5 mg/kg fingolimod orally, then oral 1.8 mg/kg once weekly for 3 weeks. Lymphocyte counts were measured via FACS for various cell surface antigens in the peritoneal lavage fluid.
# SOD1 mice received a loading dose of 2.5 mg/kg fingolimod orally, then oral 1.8 mg/kg once weekly for 3 weeks. After sacrifice, several measurements were performed. To determine the lymphocyte cell count in peritoneal lavage fluid, peritoneal lavage fluid was removed after sacrifice of the animals and the peritoneal lavage fluid was subjected to fluorescent activated cell sorting for each of the cell surface antigens: CD11b, CD28, CD3, CD4, CD86, […], and LY6G. Lymphocyte cell count from SOD1 fingolimod treated mice was compared to untreated SOD1 mice in FIG. 4.
smiles,measurement,setting,value
"CCCCCCCCc1ccc(CCC(N)(CO)CO)cc1 [fingolimod, 2-amino-2-(4-octylphenethyl)propane-1,3-diol]",Cmax,"[1]; plasma, read-out: plasma Cmax",185 ng/mL
same,half-life,"[1]; plasma, read-out: plasma half-life (converted)",31.4 h
same,Cmax,"[1]; spinal cord, read-out: spinal cord Cmax",630 ng/mL
same,half-life,"[1]; spinal cord, read-out: spinal cord half-life (converted)",89.2 h
same,circulating CD45R positive cells in whole blood (in words),[2],fewer
same,"lymphocyte count, CD11b",[3]; load 2.5 mg/kg oral then 1.8 mg/kg once weekly for 3 weeks,decreased lymphocyte count
same,"lymphocyte count, CD4",[3]; same regimen,decreased lymphocyte count
same,"lymphocyte count, CD28",[3]; same regimen,decreased lymphocyte count
same,"lymphocyte count, CD86",[3]; same regimen,decreased lymphocyte count
same,"lymphocyte count, CTLA34",[3]; same regimen,decreased lymphocyte count
same,"lymphocyte count, LY6G",[3]; same regimen,decreased lymphocyte count
